From BindingDB's records for doi:10.1016/j.ejmech.2021.113604 (China Pharmaceutical University, 2021) come the findings set out here.

Molecules are shown by their SMILES.

For assay [1], the target named is Heat shock protein HSP 90-alpha (Homo sapiens, UniProt P07900). As to the kind of experiment: Binding affinity to His-tagged human N-terminal HSP90alpha (1 to 236 residues) expressed in Escherichia coli BL21 (DE3) assessed as dissociation constant at 1.1 to 30 uM measured by BLI assay.
A further assay concerns the target Endoplasmin (Canis lupus familiaris, UniProt P41148). Description: Binding affinity to GST-tagged dog GRP94 (69 to 337 residues) expressed in Escherichia coli BL21 (DE3) assessed as dissociation constant at 0.37 to 10 uM measured by BLI assay.

Endoplasmin, sequence (P41148 whole entry, the tested form may be a part): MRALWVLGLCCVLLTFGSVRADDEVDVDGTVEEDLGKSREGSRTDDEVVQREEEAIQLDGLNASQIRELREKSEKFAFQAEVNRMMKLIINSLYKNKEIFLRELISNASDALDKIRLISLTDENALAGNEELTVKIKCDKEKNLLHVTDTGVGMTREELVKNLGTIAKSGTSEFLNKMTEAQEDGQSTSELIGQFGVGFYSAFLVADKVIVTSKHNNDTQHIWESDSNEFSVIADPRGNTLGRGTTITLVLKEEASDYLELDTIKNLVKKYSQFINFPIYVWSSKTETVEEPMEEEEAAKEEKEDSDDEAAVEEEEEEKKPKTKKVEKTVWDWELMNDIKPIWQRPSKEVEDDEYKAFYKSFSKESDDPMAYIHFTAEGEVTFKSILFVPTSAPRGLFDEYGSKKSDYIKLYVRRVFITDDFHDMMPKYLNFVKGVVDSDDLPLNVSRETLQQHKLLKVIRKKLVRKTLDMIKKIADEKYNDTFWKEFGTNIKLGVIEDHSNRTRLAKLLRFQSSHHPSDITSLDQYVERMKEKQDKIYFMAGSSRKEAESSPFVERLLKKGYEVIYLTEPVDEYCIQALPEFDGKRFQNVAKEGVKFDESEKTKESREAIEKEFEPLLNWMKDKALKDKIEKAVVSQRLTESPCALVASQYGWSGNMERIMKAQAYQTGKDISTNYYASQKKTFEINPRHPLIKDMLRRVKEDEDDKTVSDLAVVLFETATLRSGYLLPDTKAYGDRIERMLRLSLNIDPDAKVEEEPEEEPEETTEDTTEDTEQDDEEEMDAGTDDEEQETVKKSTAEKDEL

By koff is commonly meant the rate constant with which the complex falls apart. As for `CCCCC#Cc1ccc(N[C@H]2CC[C@H](O)CC2)c(C(N)=O)c1`, the koff stood at 0.114 s⁻¹ in assay [1] and 0.0284 s⁻¹ on Endoplasmin.
